Data on three compounds can be found in US7749528B2, “Implantable and sealable medical device for unidirectional delivery of therapeutic agents to tissues” (priority 2001, dated 2010).

For data set [1] the following is noted: administered locally; cited from earlier work.
The conditions of data set [2]: cited from earlier work.
Data set [3] in a line: Phase I study of the toxicity of local carboplatin. To be noted: following 6 local injections of carboplatin. In kind it is in vivo. The procedure: Protection Against Local Orbital or Periocular Toxicity: The periocular delivery of therapeutic agents is employed when increased amounts of the agent are needed inside the eye. In the case of advanced intraocular retinoblastoma, tumor cells in the vitreous gel are not exposed to sufficient amounts of the chemotherapeutic agents. For this reason, local periocular carboplatin is added to the regimen of systemic chemotherapy for advanced disease. […] Mulvihill et al. reported the complications associated with periocular injections of the chemotherapeutic agent carboplatin in infants with retinoblastoma. This emphasizes the need of a sealed system for unidirectional delivery of toxic agents to the eye.

For data set [4] the following is noted: cited from earlier work. This is another data set of the same source.

Regarding `COc1cc([C@@H]2c3cc4c(cc3[C@@H](O[C@@H]3O[C@@H]5CO[C@@H](C)O[C@H]5[C@H](O)[C@H]3O)[C@H]3COC(=O)[C@H]23)OCO4)cc(OC)c1O` [Etoposide], the local toxicity result in data set [1] is recorded as “extremely toxic when administered locally”.

`CO[C@@H]1[C@H](N(C)C(=O)c2ccccc2)C[C@H]2O[C@]1(C)n1c3ccccc3c3c4c(c5c6ccccc6n2c5c31)C(=O)NC4` [PKC412]: the “side effects when administered orally” value in data set [2] (administered orally) was “nausea and diarrhea”. For the same compound, the “toxicity by the periocular route” value in data set [2] (periocular route, simple injections) is “ocular irritation and toxicity was observed”.

For `N.N.O=C([O-])C1(C(=O)[O-])CCC1.[Pt+2]` [carboplatin], in data set [3], the long-term toxic effects entry is “atrophy of the orbital fat and connective tissue”. Moreover, the local tissue tolerance result in data set [4] (bolus injected into the periocular space) is on record as “well tolerated by the local tissue”. For the same compound, in data set [4] (periocular injections, after a certain period following the injection), the “complications after periocular injection” value was “ocular motility problems, including restriction of the eye movements”.
